# Molecular target: T1, AR (Homo sapiens, UniProt P10275)
# T1 construct: endogenous in cells; host or cells: VCaP cells
# T1 sequence (P10275 1-920): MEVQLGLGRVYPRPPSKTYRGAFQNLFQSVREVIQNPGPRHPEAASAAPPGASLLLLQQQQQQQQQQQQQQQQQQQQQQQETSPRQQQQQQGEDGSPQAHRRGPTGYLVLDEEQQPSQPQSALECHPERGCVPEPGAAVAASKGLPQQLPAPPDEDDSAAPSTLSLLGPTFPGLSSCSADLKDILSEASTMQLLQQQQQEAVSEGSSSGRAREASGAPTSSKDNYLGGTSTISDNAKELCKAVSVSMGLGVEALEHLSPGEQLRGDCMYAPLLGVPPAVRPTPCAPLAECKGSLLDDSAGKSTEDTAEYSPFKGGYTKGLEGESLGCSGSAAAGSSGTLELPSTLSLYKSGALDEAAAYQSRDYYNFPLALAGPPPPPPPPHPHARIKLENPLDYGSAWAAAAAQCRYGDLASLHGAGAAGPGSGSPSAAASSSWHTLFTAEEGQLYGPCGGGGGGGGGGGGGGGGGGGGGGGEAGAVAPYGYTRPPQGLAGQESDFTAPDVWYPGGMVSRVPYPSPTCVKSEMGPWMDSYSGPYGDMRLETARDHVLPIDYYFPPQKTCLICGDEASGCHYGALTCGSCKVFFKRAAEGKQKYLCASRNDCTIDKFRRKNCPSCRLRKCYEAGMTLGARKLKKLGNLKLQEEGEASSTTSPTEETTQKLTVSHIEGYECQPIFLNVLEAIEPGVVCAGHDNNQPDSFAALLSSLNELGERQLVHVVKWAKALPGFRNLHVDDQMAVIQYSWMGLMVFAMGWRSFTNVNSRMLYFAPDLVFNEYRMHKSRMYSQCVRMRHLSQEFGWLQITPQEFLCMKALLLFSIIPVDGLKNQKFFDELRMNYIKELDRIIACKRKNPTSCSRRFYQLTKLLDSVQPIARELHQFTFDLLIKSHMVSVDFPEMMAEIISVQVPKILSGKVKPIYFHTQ
# Assay: VCAP AR Degradation Assay
# Assay type: cell-based
# Conditions: for Y (AR degradation efficiency, % of DMSO control): class symbols *; for DC50: class symbols A-C, read-out: DC50
# Experimental: VCAP AR Degradation Assay. Test compounds were pre-dispensed into a Corning CellBind 96-well clear bottom plate (Cat #3300) using an acoustic dispenser to make a 10-point concentration series at 1:3 dilution for each compound. The final top concentration of each compound was 5 μM. DMSO at a final concentration of 0.1% was used as a control. VCaP cells cultured in DMEM with 8% fetal bovine serum (FBS) were seeded at 50K cells per well in a 200 μL volume into the compound plate and incubated at 37° C. in a CO2 incubator for 24 h. The medium was carefully removed from the cells and the plate was placed on ice. One hundred μL of ice-cold 1x cell lysis buffer from Cell Signaling Technologies (Cat #9803) was added to each well of the cells and the plate was incubated at 4° C. on a shaker for 1 h. Fifteen μL of cell lysate was used for AR ELISA detection using a PathScan Total Sandwich AR ELISA kit (Cell Signaling Technology, Cat #12580). AR levels in compound-treated wells were normalized to that of DMSO control and expressed as percent of control (PoC) (y). A Four Parameter Logistic Model (Sigmoidal Dose-Response Model) was used to determine the compound's DC50, and EC50, using the following equation:
# [formula] • A=YMin (lowest AR level normalized to DMSO control in response to compound treatment, as determined by curve fit) • B=YMax (maximum AR level as determined by curve fit) • C=EC50 • D=Hill Slope • x=compound concentration • EC50=the concentration of compound when y=(YMax−YMin)/2 • DC50=the concentration of the compound when y=50% of DMSO control (50% AR degradation) • y=AR protein level normalized to DMSO control
# The lowest measured AR level normalized to DMSO control in response to compound treatment, termed Y value, was used to characterize the compound-mediated AR degradation efficiency.
Structure (SMILES),"Y (AR degradation efficiency, % of DMSO control)",DC50 [µM]
"CCc1cc(N2C(=S)N(c3ccc(C#N)c(C(F)(F)F)c3)C(=O)C23CCCC3)ccc1OCCN1C[C@@H](C)N(CC(=O)Nc2cccc(NC3CCC(=O)NC3=O)c2)[C@@H](C)C1 (stereo partly drawn) [Example 267, 2-((2S,6R)-4-(2-(4-(3-(4-cyano-3-(trifluoromethyl)phenyl)-4-oxo-2-thioxo-1,3-diazaspiro[4.4]nonan-1-yl)-2-ethylphenoxy)ethyl)-2,6-dimethylpiperazin-1-yl)-N-(3-(2,6-dioxopiperidin-3-ylamino)phenyl)acetamide]",* (0<Y<=25%),< 0.1
"CCc1cc(N2C(=S)N(c3ccc(C#N)c(C(F)(F)F)c3)C(=O)C2(C)C)cc(F)c1OCCN1C[C@@H](C)N(CC(=O)Nc2cccc(NC3CCC(=O)NC3=O)c2)[C@@H](C)C1 (stereo partly drawn) [Example 248, 2-((2S,6R)-4-(2-(4-(3-(4-cyano-3-(trifluoromethyl)phenyl)-5,5-dimethyl-4-oxo-2-thioxoimidazolidin-1-yl)-2-ethyl-6-fluorophenoxy)ethyl)-2,6-dimethylpiperazin-1-yl)-N-(3-(2,6-dioxopiperidin-3-ylamino)phenyl)acetamide]",* (0<Y<=25%),< 0.1
"CCc1cc(N2C(=S)N(c3ccc(C#N)c(C(F)(F)F)c3)C(=O)C2(C)C)ccc1OCCN1C[C@@H](C)N(CC(=O)Nc2cc(C#N)cc(NC3CCC(=O)NC3=O)c2)[C@@H](C)C1 (stereo partly drawn) [Example 186, 2-((2S,6R)-4-(2-(4-(3-(4-cyano-3-(trifluoromethyl)phenyl)-5,5-dimethyl-4-oxo-2-thioxoimidazolidin-1-yl)-2-ethylphenoxy)ethyl)-2,6-dimethylpiperazin-1-yl)-N-(3-cyano-5-(2,6-dioxopiperidin-3-ylamino)phenyl)acetamide]",* (0<Y<=25%),< 0.1
"CCc1cc(N2C(=S)N(c3ccc(C#N)c(Cl)c3)C(=O)C2(C)C)ccc1OCCN1C[C@@H](C)N(CC(=O)Nc2cccc(NC3CCC(=O)NC3=O)c2)[C@@H](C)C1 (stereo partly drawn) [Example 291, 2-((2S,6R)-4-(2-(4-(3-(3-chloro-4-cyanophenyl)-5,5-dimethyl-4-oxo-2-thioxoimidazolidin-1-yl)-2-ethylphenoxy)ethyl)-2,6-dimethylpiperazin-1-yl)-N-(3-((2,6-dioxopiperidin-3-yl)amino)phenyl)acetamide]",* (0<Y<=25%),< 0.1
"CC(O)c1cc(N2C(=S)N(c3cnc(C#N)c(C(F)(F)F)c3)C(=O)C2(C)C)ccc1OCCN1CCN(CC(=O)Nc2cc(Cl)cc(NC3CCC(=O)NC3=O)c2)CC1 (stereo not drawn) [Example 92, N-(3-chloro-5-(2,6-dioxopiperidin-3-ylamino)phenyl)-2-(4-(2-(4-(3-(6-cyano-5-(trifluoromethyl)pyridin-3-yl)-5,5-dimethyl-4-oxo-2-thioxoimidazolidin-1-yl)-2-(1-hydroxyethyl)phenoxy)ethyl)piperazin-1-yl)acetamide]",*** (35%<Y<50%),0.1 to 0.5
"CC(C)c1cc(N2C(=S)N(c3cnc(C#N)c(C(F)(F)F)c3)C(=O)C23CCC3)ccc1OCCN1C[C@@H](C)N(CC(=O)Nc2cccc(NC3CCC(=O)NC3=O)c2)[C@@H](C)C1 (stereo partly drawn) [Example 176, 2-((2S,6R)-4-(2-(4-(7-(6-cyano-5-(trifluoromethyl)pyridin-3-yl)-8-oxo-6-thioxo-5,7-diazaspiro[3.4]octan-5-yl)-2-isopropylphenoxy)ethyl)-2,6-dimethylpiperazin-1-yl)-N-(3-(2,6-dioxopiperidin-3-ylamino)phenyl)acetamide]",* (0<Y<=25%),< 0.1
